According to paper PMC12606247, “Bidirectional communication between nucleotide and substrate binding sites in a type IV multidrug ABC transporter” (Nature Communications, 2025):

Columns and labels:
BmrA NBD [1] = target: BmrA NBD (Bacillus subtilis, UniProt O06967, R389K); test: biochemical
BmrA NBD [2] = target: BmrA NBD (Bacillus subtilis, UniProt O06967, R414A); test: biochemical
MsbA NBD = MsbA NBD (Escherichia coli, UniProt P60752); test: 1H, […]-HSQC NMR chemical shift perturbation; type: binding; conditions: 50 mM BisTris pH 7, 50 mM NaCl, 298 K
MsbA NBD, sequence (P60752 323-582): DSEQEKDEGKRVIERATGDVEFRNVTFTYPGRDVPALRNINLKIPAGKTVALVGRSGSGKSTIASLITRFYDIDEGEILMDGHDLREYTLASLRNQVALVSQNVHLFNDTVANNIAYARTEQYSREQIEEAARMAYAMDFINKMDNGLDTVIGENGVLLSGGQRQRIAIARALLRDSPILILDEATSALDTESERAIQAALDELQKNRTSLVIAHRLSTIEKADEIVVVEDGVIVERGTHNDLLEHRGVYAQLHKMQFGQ

BmrA NBD [3] = target: BmrA NBD (Bacillus subtilis, UniProt O06967, R414K); test: biochemical
BmrA NBD (Bacillus subtilis, UniProt O06967, R414K), sequence (O06967 331-589 R414K): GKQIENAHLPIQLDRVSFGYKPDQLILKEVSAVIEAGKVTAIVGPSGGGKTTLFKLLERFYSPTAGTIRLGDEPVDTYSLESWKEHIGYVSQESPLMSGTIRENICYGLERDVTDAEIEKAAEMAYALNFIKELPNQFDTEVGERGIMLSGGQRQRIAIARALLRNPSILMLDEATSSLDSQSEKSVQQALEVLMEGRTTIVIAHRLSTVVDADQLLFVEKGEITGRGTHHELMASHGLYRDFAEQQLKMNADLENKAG

BmrA NBD [4] = target: BmrA NBD (Bacillus subtilis, UniProt O06967, W413F); test: biochemical
BmrA NBD (Bacillus subtilis, UniProt O06967, W413F), sequence (O06967 331-589 W413F): as the sequence (O06967 331-589 R414K) above, with W83F, K84R counted along it

BmrA NBD [5] = target: BmrA NBD (Bacillus subtilis, UniProt O06967, K380A); test: biochemical
BmrA NBD (Bacillus subtilis, UniProt O06967, K380A), sequence (O06967 331-589 K380A): as the sequence (O06967 331-589 R414K) above, with K50A, K84R counted along it

BmrA NBD [6] = target: BmrA NBD (Bacillus subtilis, UniProt O06967, R389M); test: biochemical
BmrA NBD (Bacillus subtilis, UniProt O06967, R389M), sequence (O06967 331-589 R389M): as the sequence (O06967 331-589 R414K) above, with R59M, K84R counted along it

LmrA NBD = LmrA NBD (Lactococcus cremoris, UniProt P97046); test: 1H, […]-HSQC NMR chemical shift perturbation; type: binding; conditions: 50 mM BisTris pH 7, 50 mM NaCl, 298 K
LmrA NBD, sequence (P97046 330-590): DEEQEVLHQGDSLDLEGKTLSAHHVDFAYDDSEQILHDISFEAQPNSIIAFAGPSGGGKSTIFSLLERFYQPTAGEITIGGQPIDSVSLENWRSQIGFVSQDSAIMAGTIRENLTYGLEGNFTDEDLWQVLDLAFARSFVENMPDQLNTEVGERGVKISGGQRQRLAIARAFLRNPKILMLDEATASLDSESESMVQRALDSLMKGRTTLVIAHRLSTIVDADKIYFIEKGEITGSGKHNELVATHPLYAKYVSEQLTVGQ

BmrA NBD [7] = target: T1, BmrA NBD (Bacillus subtilis, UniProt O06967); test: dissociation constant (method not stated in main text); type: binding; conditions: read-out: KD, ADP
T1 sequence (O06967 331-589): as the sequence (O06967 331-589 R414K) above, with K84R counted along it

BmrA NBD [8] = target: T1, BmrA NBD; test: 1H, […]-HSQC NMR chemical shift perturbation; type: binding; conditions: 10 mM ATP, 50 mM BisTris pH 7, 50 mM NaCl, 298 K
BmrA full-length [9] = target: T2, BmrA full-length (Bacillus subtilis, UniProt O06967); test: ATPase assay coupled to NADH oxidation (also […] NMR); type: biochemical; conditions: 10 mM MgCl2, pH 8, 37 °C; detergent, nanodiscs or liposomes
T2 construct: full-length half transporter, C-terminal His6 tag, E. coli C41(DE3); homodimer in DDM/cholate, MSP1E3D1 nanodiscs or inside-out vesicles
T2 sequence (O06967 whole entry): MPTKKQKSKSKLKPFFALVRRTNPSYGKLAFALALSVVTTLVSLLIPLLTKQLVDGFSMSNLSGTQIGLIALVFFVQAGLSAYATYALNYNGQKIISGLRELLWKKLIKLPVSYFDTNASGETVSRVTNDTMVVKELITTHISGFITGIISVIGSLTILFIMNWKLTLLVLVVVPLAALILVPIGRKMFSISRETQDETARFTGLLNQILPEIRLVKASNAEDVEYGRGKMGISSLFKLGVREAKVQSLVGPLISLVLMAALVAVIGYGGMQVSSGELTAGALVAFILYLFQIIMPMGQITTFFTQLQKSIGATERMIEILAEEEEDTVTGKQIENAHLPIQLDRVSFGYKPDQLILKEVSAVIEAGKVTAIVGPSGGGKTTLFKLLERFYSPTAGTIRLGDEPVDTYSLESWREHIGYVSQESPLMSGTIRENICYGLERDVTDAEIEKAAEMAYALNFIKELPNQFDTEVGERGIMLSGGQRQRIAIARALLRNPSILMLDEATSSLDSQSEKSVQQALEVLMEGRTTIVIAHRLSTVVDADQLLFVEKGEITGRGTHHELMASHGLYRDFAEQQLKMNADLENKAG

BmrA full-length [10] = target: T2, BmrA full-length; test: HDX-MS (also fluorescence transport assay in inside-out vesicles); type: binding; conditions: 100 μM doxorubicin, nanodiscs, pD 8.0, 20 °C
BmrA full-length [11] = target: T2, BmrA full-length; test: […] NMR of 5-fluorotryptophan-labelled protein (W413 line broadening); type: binding; conditions: 15 mM reserpine, MSP1E3D1 nanodiscs, E. coli polar lipids, 298 K

BmrA NBD (Bacillus subtilis, UniProt O06967, R414A), sequence (O06967 331-589 R414A): as the sequence (O06967 331-589 R414K) above, with K84A counted along it
BmrA NBD (Bacillus subtilis, UniProt O06967, R389K), sequence (O06967 331-589 R389K): as the sequence (O06967 331-589 R414K) above, with R59K, K84R counted along it

Nc1ncnc2c1ncn2[C@@H]1O[C@H](COP(=O)(O)OP(=O)(O)O)[C@@H](O)[C@H]1O [ADP]
Kd (BmrA NBD [1]): 221 ± 105 µM
Kd (BmrA NBD [2]): 575 ± 43.5 µM
1H,15N-HSQC NMR chemical shift perturbation (MsbA NBD; 10 mM ADP): (BmrA W413, LmrA W421, MsbA L415) responded to the addition of ATP or ADP
Kd (BmrA NBD [3]): 266 ± 97 µM
Kd (BmrA NBD [4]): 221 ± 54 µM
Kd (BmrA NBD [5]): 14400 ± 3700 µM
Kd (BmrA NBD [6]): 2890 ± 1460 µM
1H,15N-HSQC NMR chemical shift perturbation (LmrA NBD; 10 mM ADP): (BmrA W413, LmrA W421, MsbA L415) responded to the addition of ATP or ADP
Kd (BmrA NBD [7]): 214 ± 43 µM

Nc1ncnc2c1ncn2[C@@H]1O[C@H](COP(=O)(O)OP(=O)(O)OP(=O)(O)O)[C@@H](O)[C@H]1O [ATP]
1H,15N-HSQC NMR chemical shift perturbation (BmrA NBD [8]): (BmrA W413, LmrA W421, MsbA L415) responded to the addition of ATP or ADP
1H,15N-HSQC NMR chemical shift perturbation (MsbA NBD; 10 mM ATP): (BmrA W413, LmrA W421, MsbA L415) responded to the addition of ATP or ADP
ATPase assay coupled to NADH oxidation (also 19F NMR) (BmrA full-length [9]): ATPase activity of purified BmrA full-length WT, K380A and hinge mutant constructs was determined
1H,15N-HSQC NMR chemical shift perturbation (LmrA NBD; 10 mM ATP): (BmrA W413, LmrA W421, MsbA L415) responded to the addition of ATP or ADP

COc1cccc2c1C(=O)c1c(O)c3c(c(O)c1C2=O)C[C@@](O)(C(=O)CO)C[C@@H]3O[C@H]1C[C@H](N)[C@H](O)[C@H](C)O1 [doxorubicin]
HDX-MS (also fluorescence transport assay in inside-out vesicles) (BmrA full-length [10]): in the absence and presence of doxorubicin showed decreased exchange in the TMD

COC(=O)[C@H]1[C@H]2C[C@@H]3c4[nH]c5cc(OC)ccc5c4CCN3C[C@H]2C[C@@H](OC(=O)c2cc(OC)c(OC)c(OC)c2)[C@@H]1OC [reserpine]
19F NMR of 5-fluorotryptophan-labelled protein (W413 line broadening) (BmrA full-length [11]): Addition of ATP or the substrate reserpine resulted in changes in chemical shift and linewidths
